# Source: patent US10246426B2, “Triazole compounds as T-type calcium channel blockers” (IDORSIA PHARMACEUTICALS LTD, priority 2014, dated 2019)
# Molecular target: Cav3.2 (Homo sapiens, UniProt O95180)
# Assay: Calcium flux FLIPR assay, HEK293 cells recombinantly expressing Cav3.2
# Assay type: cell-based
# Details: Cav3.2-channel, Ca2+ entry stimulated by 10 mM CaCl2
# Outline: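 Fluo-4-loaded HEK293 cells stably expressing Cav3.2, seeded overnight at 37 °C; compounds diluted in TEAC buffer (pH 7.2) and preincubated 3 min before Ca2+ entry triggered with CaCl2 at 10 mM final. Area under FLIPR fluorescence trace fitted sigmoidally; IC50 relative to vehicle signal.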
# Cav3.2, sequence (O95180 whole entry, looked up): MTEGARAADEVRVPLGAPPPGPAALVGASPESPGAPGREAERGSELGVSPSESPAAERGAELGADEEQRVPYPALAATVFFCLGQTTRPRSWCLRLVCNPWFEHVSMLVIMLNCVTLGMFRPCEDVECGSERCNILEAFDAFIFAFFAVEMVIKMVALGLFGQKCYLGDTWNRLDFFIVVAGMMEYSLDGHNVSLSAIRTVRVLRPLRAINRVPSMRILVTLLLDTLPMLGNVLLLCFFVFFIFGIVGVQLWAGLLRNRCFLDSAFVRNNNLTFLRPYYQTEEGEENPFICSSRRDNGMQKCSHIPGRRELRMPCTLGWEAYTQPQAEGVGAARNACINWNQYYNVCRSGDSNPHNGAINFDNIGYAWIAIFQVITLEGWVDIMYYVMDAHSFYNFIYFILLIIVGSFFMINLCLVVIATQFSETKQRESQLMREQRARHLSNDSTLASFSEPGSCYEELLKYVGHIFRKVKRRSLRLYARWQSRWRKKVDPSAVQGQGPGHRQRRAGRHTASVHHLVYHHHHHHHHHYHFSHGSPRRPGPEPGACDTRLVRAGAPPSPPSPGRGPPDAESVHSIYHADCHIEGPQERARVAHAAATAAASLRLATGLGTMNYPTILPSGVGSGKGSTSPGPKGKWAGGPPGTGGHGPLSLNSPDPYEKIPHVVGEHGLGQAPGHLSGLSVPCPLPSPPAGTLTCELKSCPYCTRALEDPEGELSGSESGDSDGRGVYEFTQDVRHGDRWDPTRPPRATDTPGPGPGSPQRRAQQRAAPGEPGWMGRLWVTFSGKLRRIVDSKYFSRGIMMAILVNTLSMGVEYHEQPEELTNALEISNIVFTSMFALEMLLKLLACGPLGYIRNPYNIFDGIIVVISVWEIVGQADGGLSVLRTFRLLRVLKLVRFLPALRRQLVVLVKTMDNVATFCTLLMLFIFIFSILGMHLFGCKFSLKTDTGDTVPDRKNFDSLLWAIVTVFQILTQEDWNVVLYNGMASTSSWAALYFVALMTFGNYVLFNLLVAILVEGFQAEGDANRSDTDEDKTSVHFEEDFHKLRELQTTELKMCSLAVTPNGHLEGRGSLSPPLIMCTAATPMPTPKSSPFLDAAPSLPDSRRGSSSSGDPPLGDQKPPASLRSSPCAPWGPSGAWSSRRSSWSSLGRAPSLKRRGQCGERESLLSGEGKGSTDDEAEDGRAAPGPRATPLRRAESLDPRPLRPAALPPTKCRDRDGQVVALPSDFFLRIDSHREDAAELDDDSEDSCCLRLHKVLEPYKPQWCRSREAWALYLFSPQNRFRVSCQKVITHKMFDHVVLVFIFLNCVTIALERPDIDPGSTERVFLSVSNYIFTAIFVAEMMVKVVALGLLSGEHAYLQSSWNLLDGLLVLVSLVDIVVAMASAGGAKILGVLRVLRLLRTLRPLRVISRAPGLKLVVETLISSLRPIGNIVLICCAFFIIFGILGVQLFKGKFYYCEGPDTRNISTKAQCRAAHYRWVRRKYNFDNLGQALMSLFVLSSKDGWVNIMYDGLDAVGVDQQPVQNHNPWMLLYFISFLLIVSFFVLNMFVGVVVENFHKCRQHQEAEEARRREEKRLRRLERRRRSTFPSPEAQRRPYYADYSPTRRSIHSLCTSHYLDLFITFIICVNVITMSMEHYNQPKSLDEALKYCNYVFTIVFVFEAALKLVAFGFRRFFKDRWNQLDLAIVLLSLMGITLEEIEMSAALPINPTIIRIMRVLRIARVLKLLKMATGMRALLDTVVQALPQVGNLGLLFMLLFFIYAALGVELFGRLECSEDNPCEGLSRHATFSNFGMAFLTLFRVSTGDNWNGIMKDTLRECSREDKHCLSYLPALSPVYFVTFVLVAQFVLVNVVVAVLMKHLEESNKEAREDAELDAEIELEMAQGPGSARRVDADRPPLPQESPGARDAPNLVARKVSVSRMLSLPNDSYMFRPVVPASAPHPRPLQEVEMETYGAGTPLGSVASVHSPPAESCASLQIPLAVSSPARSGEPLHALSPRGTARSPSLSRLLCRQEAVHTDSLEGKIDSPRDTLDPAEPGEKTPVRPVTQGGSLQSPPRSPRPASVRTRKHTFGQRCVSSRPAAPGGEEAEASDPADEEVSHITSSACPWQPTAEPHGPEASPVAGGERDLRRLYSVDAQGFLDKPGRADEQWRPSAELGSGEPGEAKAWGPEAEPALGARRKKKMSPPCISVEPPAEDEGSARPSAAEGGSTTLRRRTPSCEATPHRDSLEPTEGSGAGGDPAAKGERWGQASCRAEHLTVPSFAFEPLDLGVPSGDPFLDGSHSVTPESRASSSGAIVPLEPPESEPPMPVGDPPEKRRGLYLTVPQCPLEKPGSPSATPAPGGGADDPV
row,SMILES,IC50
1,"CC(C)c1ccc(CC(=O)Nc2cnn(Cc3ccc(OC(F)(F)F)c(F)c3)n2)cc1 [Example 187, N-[2-(3-Fluoro-4-trifluoromethoxy-benzyl)-2H-[1,2,3]triazol-4-yl]-2-(4-isopropyl-phenyl)-acetamide]",65 nM
2,"CCn1ncc2cc(CC(=O)Nc3cnn(Cc4ccc(OC(F)(F)F)c(F)c4)n3)ccc21 [Example 190, 2-(1-Ethyl-1H-indazol-5-yl)-N-[2-(3-fluoro-4-trifluoromethoxy-benzyl)-2H-[1,2,3]triazol-4-yl]-acetamide]",14 nM
3,"Cc1nn(C)c2ccc(CC(=O)Nc3cnn(Cc4ccc(OC(F)(F)F)c(F)c4)n3)cc12 [Example 191, 2-(1,3-Dimethyl-1H-indazol-5-yl)-N-[2-(3-fluoro-4-trifluoromethoxy-benzyl)-2H-[1,2,3]triazol-4-yl]-acetamide]",11 nM
4,"O=C(Cc1ccc(N2CCCC2)nc1)Nc1cnn(Cc2ccc(OC(F)(F)F)c(F)c2)n1 [Example 192, N-[2-(3-Fluoro-4-trifluoromethoxy-benzyl)-2H-[1,2,3]triazol-4-yl]-2-(6-pyrrolidin-1-yl-pyridin-3-yl)-acetamide]",23 nM
5,"N#Cc1ccc(Cn2ncc(NC(=O)Cc3ccc(OCC4(F)COC4)cc3)n2)cc1 [Example 194, N-[2-(4-Cyano-benzyl)-2H-[1,2,3]triazol-4-yl]-2-[4-(3-fluoro-oxetan-3-ylmethoxy)-phenyl]-acetamide]",340 nM
6,"N#Cc1ccc(Cn2ncc(NC(=O)Cc3ccc(OC4CC(F)(F)C4)cc3)n2)cc1 [Example 196, N-[2-(4-Cyano-benzyl)-2H-[1,2,3]triazol-4-yl]-2-[4-(3,3-difluoro-cyclobutoxy)-phenyl]-acetamide]",41 nM
7,"CC1(COc2ccc(CC(=O)Nc3cnn(Cc4ccc(C#N)cc4)n3)cc2)CC(F)(F)C1 [Example 197, N-[2-(4-Cyano-benzyl)-2H-[1,2,3]triazol-4-yl]-2-[4-(3,3-difluoro-1-methyl-cyclobutylmethoxy)-phenyl]-acetamide]",52 nM
8,"N#Cc1ccc(Cn2ncc(NC(=O)Cc3ccc(C4(F)COC4)cc3)n2)cc1 [Example 198, N-[2-(4-Cyano-benzyl)-2H-[1,2,3]triazol-4-yl]-2-[4-(3-fluoro-oxetan-3-yl)-phenyl]-acetamide]",130 nM
9,"Cc1cc(CC(=O)Nc2cnn(Cc3ccc(C#N)c(F)c3)n2)ccc1OCC(F)(F)F [Example 199, N-[2-(4-Cyano-3-fluoro-benzyl)-2H-[1,2,3]triazol-4-yl]-2-[3-methyl-4-(2,2,2-trifluoro-ethoxy)-phenyl]-acetamide]",17 nM
10,"COc1ccc(Cn2ncc(NC(=O)Cc3ccc(C(C)(C)C)cc3)n2)cc1C#N [Example 202, 2-(4-tert-Butyl-phenyl)-N-[2-(3-cyano-4-methoxy-benzyl)-2H-[1,2,3]triazol-4-yl]-acetamide]",320 nM
11,"Cc1ccc(Cn2ncc(NC(=O)Cc3ccc4c(cnn4C)c3)n2)cc1C#N [Example 204, N-[2-(3-Cyano-4-methyl-benzyl)-2H-[1,2,3]triazol-4-yl]-2-(1-methyl-1H-indazol-5-yl)-acetamide]",280 nM
12,"COc1ccc(Cn2ncc(NC(=O)Cc3ccc4c(cnn4C)c3)n2)cc1C#N [Example 208, N-[2-(3-Cyano-4-methoxy-benzyl)-2H-[1,2,3]triazol-4-yl]-2-(1-methyl-1H-indazol-5-yl)-acetamide]",600 nM
13,"Cc1ccc(Cn2ncc(NC(=O)Cc3ccc(OC4CC(F)(F)C4)cc3)n2)cc1C#N [Example 209, N-[2-(3-Cyano-4-methyl-benzyl)-2H-[1,2,3]triazol-4-yl]-2-[4-(3,3-difluoro-cyclobutoxy)-phenyl]-acetamide]",180 nM
14,"COc1cc(Cn2ncc(NC(=O)Cc3ccc4c(c3)c(C)nn4C)n2)cc(F)c1F [Example 210, N-[2-(3,4-Difluoro-5-methoxy-benzyl)-2H-[1,2,3]triazol-4-yl]-2-(1,3-dimethyl-1H-indazol-5-yl)-acetamide]",260 nM
15,"Cc1ccc(Cn2ncc(NC(=O)Cc3ccc(N4CCC(F)(F)C4)nc3)n2)cc1C#N [Example 211, N-[2-(3-Cyano-4-methyl-benzyl)-2H-[1,2,3]triazol-4-yl]-2-[6-(3,3-difluoro-pyrrolidin-1-yl)-pyridin-3-yl]-acetamide]",82 nM
16,"COc1cc(Cn2ncc(NC(=O)Cc3ccc4c(cnn4C)c3)n2)cc(F)c1F [Example 212, N-[2-(3,4-Difluoro-5-methoxy-benzyl)-2H-[1,2,3]triazol-4-yl]-2-(1-methyl-1H-indazol-5-yl)-acetamide]",230 nM
17,"Cc1ccc(Cn2ncc(NC(=O)Cc3ccc(N4CCCC4)nc3)n2)cc1C#N [Example 213, N-[2-(3-Cyano-4-methyl-benzyl)-2H-[1,2,3]triazol-4-yl]-2-(6-pyrrolidin-1-yl-pyridin-3-yl)-acetamide]",120 nM
18,"COc1ccc(Cn2ncc(NC(=O)Cc3ccc(C4(F)COC4)cc3)n2)cc1C#N [Example 214, N-[2-(3-Cyano-4-methoxy-benzyl)-2H-[1,2,3]triazol-4-yl]-2-[4-(3-fluoro-oxetan-3-yl)-phenyl]-acetamide]",250 nM
19,"Cc1ccc(Cn2ncc(NC(=O)Cc3ccc4cnn(C)c4c3)n2)cc1C#N [Example 215, N-[2-(3-Cyano-4-methyl-benzyl)-2H-[1,2,3]triazol-4-yl]-2-(1-methyl-1H-indazol-6-yl)-acetamide]",650 nM
20,"Cc1ccc(Cn2ncc(NC(=O)Cc3ccc(C(C)C)cc3)n2)cc1C#N [Example 216, N-[2-(3-Cyano-4-methyl-benzyl)-2H-[1,2,3]triazol-4-yl]-2-(4-isopropyl-phenyl)-acetamide]",74 nM
21,"Cc1ccc(Cn2ncc(NC(=O)Cc3ccc(C(C)(C)C)cc3)n2)cc1C#N [Example 217, 2-(4-tert-Butyl-phenyl)-N-[2-(3-cyano-4-methyl-benzyl)-2H-[1,2,3]triazol-4-yl]-acetamide]",160 nM
22,"COc1cc(Cn2ncc(NC(=O)Cc3ccc(N4CCC(F)(F)C4)nc3)n2)cc(F)c1F [Example 219, N-[2-(3,4-Difluoro-5-methoxy-benzyl)-2H-[1,2,3]triazol-4-yl]-2-[6-(3,3-difluoro-pyrrolidin-1-yl)-pyridin-3-yl]-acetamide]",120 nM
23,"COc1cc(Cn2ncc(NC(=O)Cc3ccc(N4CCCC4)nc3)n2)cc(F)c1F [Example 221, N-[2-(3,4-Difluoro-5-methoxy-benzyl)-2H-[1,2,3]triazol-4-yl]-2-(6-pyrrolidin-1-yl-pyridin-3-yl)-acetamide]",160 nM

# Further compounds by falling IC50, results first:
row,IC50,SMILES
1,900 nM,"COC1(c2ccc(CC(=O)Nc3cnn(Cc4ccc(C)c(C#N)c4)n3)cc2)COC1 [Example 206, N-[2-(3-Cyano-4-methyl-benzyl)-2H-[1,2,3]triazol-4-yl]-2-[4-(3-methoxy-oxetan-3-yl)-phenyl]-acetamide]"
2,590 nM,"COc1cc(Cn2ncc(NC(=O)Cc3ccc(C(C)(C)C)cc3)n2)cc(F)c1F [Example 218, 2-(4-tert-Butyl-phenyl)-N-[2-(3,4-difluoro-5-methoxy-benzyl)-2H-[1,2,3]triazol-4-yl]-acetamide]"
3,410 nM,"Cc1ccc(Cn2ncc(NC(=O)Cc3ccc(OCC4(F)COC4)cc3)n2)cc1C#N [Example 200, N-[2-(3-Cyano-4-methyl-benzyl)-2H-[1,2,3]triazol-4-yl]-2-[4-(3-fluoro-oxetan-3-ylmethoxy)-phenyl]-acetamide]"
4,310 nM,"Cc1ccc(Cn2ncc(NC(=O)Cc3ccc(C4(F)COC4)cc3)n2)cc1C#N [Example 201, N-[2-(3-Cyano-4-methyl-benzyl)-2H-[1,2,3]triazol-4-yl]-2-[4-(3-fluoro-oxetan-3-yl)-phenyl]-acetamide]"
5,300 nM,"COc1cc(Cn2ncc(NC(=O)Cc3ccc(C(C)C)cc3)n2)cc(F)c1F [Example 222, N-[2-(3,4-Difluoro-5-methoxy-benzyl)-2H-[1,2,3]triazol-4-yl]-2-(4-isopropyl-phenyl)-acetamide]"
6,220 nM,"COc1ccc(Cn2ncc(NC(=O)Cc3ccc(C4(C(F)(F)F)CC4)cc3)n2)cc1C#N [Example 203, N-[2-(3-Cyano-4-methoxy-benzyl)-2H-[1,2,3]triazol-4-yl]-2-[4-(1-trifluoromethyl-cyclopropyl)-phenyl]-acetamide]"
7,190 nM,"CCn1ncc2cc(CC(=O)Nc3cnn(Cc4cc(F)c(F)c(OC)c4)n3)ccc21 [Example 220, N-[2-(3,4-Difluoro-5-methoxy-benzyl)-2H-[1,2,3]triazol-4-yl]-2-(1-ethyl-1H-indazol-5-yl)-acetamide]"
8,160 nM,"COc1ccc(Cn2ncc(NC(=O)Cc3ccc(C(C)C)cc3)n2)cc1C#N [Example 205, N-[2-(3-Cyano-4-methoxy-benzyl)-2H-[1,2,3]triazol-4-yl]-2-(4-isopropyl-phenyl)-acetamide]"
9,130 nM,"COc1ccc(Cn2ncc(NC(=O)Cc3ccc(N4CCC(F)(F)C4)nc3)n2)cc1C#N [Example 207, N-[2-(3-Cyano-4-methoxy-benzyl)-2H-[1,2,3]triazol-4-yl]-2-[6-(3,3-difluoro-pyrrolidin-1-yl)-pyridin-3-yl]-acetamide]"
10,96 nM,"O=C(Cc1ccc(C2(C(F)(F)F)CC2)cc1)Nc1cnn(Cc2ccc(OC(F)(F)F)c(F)c2)n1 [Example 188, N-[2-(3-Fluoro-4-trifluoromethoxy-benzyl)-2H-[1,2,3]triazol-4-yl]-2-[4-(1-trifluoromethyl-cyclopropyl)-phenyl]-acetamide]"
11,63 nM,"N#Cc1ccc(Cn2ncc(NC(=O)Cc3ccc(C4(C(F)(F)F)CC4)cc3)n2)cc1 [Example 195, N-[2-(4-Cyano-benzyl)-2H-[1,2,3]triazol-4-yl]-2-[4-(1-trifluoromethyl-cyclopropyl)-phenyl]-acetamide]"
12,17 nM,"O=C(Cc1ccc(N2CCC(F)(F)C2)nc1)Nc1cnn(Cc2ccc(OC(F)(F)F)c(F)c2)n1 [Example 189, 2-[6-(3,3-Difluoro-pyrrolidin-1-yl)-pyridin-3-yl]-N-[2-(3-fluoro-4-trifluoromethoxy-benzyl)-2H-[1,2,3]triazol-4-yl]-acetamide]"
